Assay results from article PMC9415608, “Design, Synthesis and Biological Investigation of 2-Anilino Triazolopyrimidines as Tubulin Polymerization Inhibitors with Anticancer Activities” (Pharmaceuticals, 2022).
Like-named read-outs stand apart in the source and are kept apart here.

Key:
HeLa cell xenograft = test: Zebrafish xenograft model with DiI-labeled HeLa cells; assay type: in vivo, Zebrafish (Danio rerio); conditions: 24 h treatment, 30 or 300 nM
From the text: Prior to microinjections into Tg zebrafish embryos (fli1: EGFP), HeLa tumor cells were labeled with the VybrantTM DiI dye (Invitrogen, ThermoFisher, Carlsbad, CA, USA). The fluorescent cells were loaded into borosilicate glass capillary needles (OD/ID: 1.00/0.75 mm, World Precision Instruments (WPI, Friedberg, Germany) and injected (200 cells), through a pneumatic picopump, into the Cuvier duct of 48 hpf embryos previously anesthetized with tricaine (0.02%, Sigma-Aldrich, Milan, Italy).
After injection, the xenograft-harboring larvae were incubated to recover at 34° C in fish water containing phenylthiourea (PTU) to inhibit the pigmentation process. After 2 h from the injection, the embryos were examined to ensure homogeneity of the xenografts. For drug treatments, only successfully injected xenograft larvae were selected, with approximately 200 HeLa fluorescent cells scattered around the caudal area.
The injected xenografts were exposed to the doses of 3d used above with DMSO as control.
For cancer cell imaging and fluorescence quantification, anesthetized embryos were distributed to 96-well plates with one embryo/well. Initially (time 0 h, pre-treatment) and after one-day post-treatment, the tumors were photographed with a Zeiss AxioObserver microscope for live-cell imaging.

[1] = test system: Wild-type AB zebrafish embryos; test: Drug toxicity assessment on zebrafish embryos; assay type: in vivo, Zebrafish (Danio rerio); conditions: 6 hpf to 72 hpf
Protocol: Zebrafish (Danio rerio) were obtained, staged and raised as described previously and maintained according to the OPBA of the Istituto di Ricerca Pediatrica guidelines. All procedures were conducted following the recommendations and the guidelines of the Animal Use Ethics Committee concerning the protection of animals used for scientific purposes.
Wild-type AB zebrafish embryos were treated with chemicals from shield stage (6 hpf) to larval stage (72 hpf) in a 12-well plate, by adding 20 larvae/well for each experimental condition. The zebrafish embryos were treated with compound 3d at the concentration of 30 nm and 300 nM. These concentrations were selected on the basis of the IC50 found above in HeLa cells. The drugs were added directly to the fish water diluted directly from the stock solution in DMSO. […] Subsequently, the treated embryos were kept at a constant temperature (28.5 °C). Embryos are monitored daily through a stereo microscope (Nikon SMZ745T; Nikon, Japan) and the morphological changes as well as the number of dead embryos were evaluated and recorded.

[2] = test system: MDA-MB-231, HeLa, A549 and HT-29 cancer cell lines; test: Antiproliferative activity stated across the panel of cancer cell lines; assay type: cell-based, human; conditions: for IC50: Homo sapiens
Protocol: All the cell lines used in this paper were of human origin and purchased from the American Type Culture Collection (ATCC, Manassas, VA, USA). Colon adenocarcinoma (HT-29), non-small cell lung carcinoma (A549), cervix carcinoma (HeLa) and breast adenocarcinoma (MDA-MB-231) cells were grown in RPMI (HT29) or DMEM (A549, HeLa, MDA-MB-231) medium (Gibco, Milano, Italy). Both media were supplemented with 115 units/mL of penicillin G (Gibco, Milano, Italy), 115 μg/mL of streptomycin (Invitrogen, Milano, Italy) and 10% fetal bovine serum (Invitrogen, Milano, Italy). All cell lines were grown at 37 °C in a humidified 5% CO2 atmosphere. The cells were grown in 2 mL of complete medium.
Stock solutions were prepared for each compound by dissolving in DMSO at the final concentration of 10 mM.
The cells were seeded in 96-well plates at the appropriate density for each cell line. The respective cell line densities used for the antiproliferative assay were HeLa and HT29 5000 cells/well, A549 4000 cells/well and MDA-MB-231 7000 cells/well. The total volume of medium was 100 µL. After 24 h, the cells were treated by performing serial 5-fold dilutions of the tested compounds starting from a concentration of 10 μM. All experimental conditions were tested in triplicate for statistical analysis. After 72 h of incubation, 10 μL of 100 μg/mL resazurin solution was added to each well and the plate was re-incubated for 3–4 h. The fluorescence of the wells in each plate was monitored using a Spark 10M spectrophotometer (Tecan Group Ltd., Mannedorf, Switzerland) with a 535 nm excitation wavelength and a 600 nm emission wavelength.

Bovine brain tubulin = test: Inhibition of tubulin polymerization (turbidimetric assembly assay); assay type: biochemical
Protocol: Bovine brain tubulin was purified as described previously. To evaluate the effects of the compounds on tubulin assembly in vitro [80], varying concentrations were preincubated with 10 μM tubulin in 0.8 M monosodium glutamate (pH 6.6) at 30 °C and the reaction mixtures then cooled to 0 °C. After addition of GTP, the mixtures were transferred to 0 °C cuvettes in Beckman Coulter (Brea, CA, USA) DU-7400/DU-7500 recording spectrophotometers equipped with electronic temperature controllers and warmed to 30 °C, and the assembly of tubulin was observed turbidimetrically. […] Inhibition of colchicine binding to tubulin was measured as described before, except that the reaction mixtures contained 0.5 μM tubulin and 5 μM each of [^3H]colchicine and test compound. Only one DEAE-cellulose filter was used per sample, and filtration was by gravity.
Bovine brain tubulin (see ref. [79] for details of purification) was used to examine effects on tubulin polymerization and colchicine binding. Briefly, in the polymerization experiments, different compound concentrations were preincubated with 10 µM tubulin for 15 min at 30 °C and cooled on ice. After GTP was added to each reaction mixture, the samples were transferred to 0 °C cuvettes in recording spectrophotometers with electronic temperature controllers. The temperature was raised to 30 °C over about 30 s, and turbidity development was followed for 20 min at 350 nm. […] In the current studies, [^3H]colchicine (from American Radiolabeled Corp., St. Louis, MO) binding was measured after 10 min at 37 °C. Reaction mixtures contained 0.5 µM tubulin and 5.0 µM each of the [^3H]colchicine and the potential inhibitor, and a single DEAE-cellulose filter was used for each sample, with gravity filtration.

cleaved caspase-9 (D330) = test: Western blot analysis; assay type: cell-based, human; conditions: HeLa, 24 h, 25 and 50 nM
Protocol: (§1) Hela cells treated with the test compounds were harvested by centrifugation and then lysed with 0.1% (v/v) Triton X-100 containing RNase A at 0 °C. The protein content of the solutions was measured and analyzed as described previously. The antibodies directed against cyclin B, cdc2 (Y15), ATR,Bcl-2, cleaved caspase-9 (D330) and actin were purchased from Cell Signaling. The membranes were visualized using ECL select (GE Healthcare, Uppsal, Sweden), and images were acquired using an Uvitec-Alliance imaging system.

cdc2 (Y15) = test: Western blot analysis; assay type: cell-based, human; conditions: HeLa, 24 h
Protocol: as §1

Bcl-2 = test: Western blot analysis; assay type: cell-based, human; conditions: HeLa, 24 h
Protocol: as §1

cyclin B = test: Western blot analysis; assay type: cell-based, human; conditions: HeLa, 24 h
Protocol: as §1

ATR = test: Western blot analysis; assay type: cell-based, human; conditions: HeLa, 24 h
Protocol: as §1

COc1cc(-c2ccnc3nc(Nc4ccc(C)cc4)nn23)cc(OC)c1OC [Compound 3d, N-(p-Tolyl)-7-(3,4,5-trimethoxyphenyl)-[1,2,4]triazolo[1,5-a]pyrimidin-2-amine]
fluorescence intensity of tumor xenografts (HeLa cell xenograft): decreased in a dose-dependent manner, reaching statistical significance at 300 nM | number of disseminated cancer cells (HeLa cell xenograft): significantly reduced the number of disseminated cancer cells | toxicity to zebrafish embryos ([1]; 30 nM in fish water): no morphological abnormalities or embryonic lethality | toxicity to zebrafish embryos ([1]; 300 nM in fish water, edema re-absorbed within the next 24 h): small yolk sac edema in the majority of 48 hpf embryos | fold less active than 2a as antiproliferative agent ([2]; HeLa, HT-29 and A549 cells): 1-2 fold | IC50 ([2]; in the four tumor cell lines examined, read-out: IC50s, range): 0.03 to 0.43 µM | IC50 ([2]; on HeLa, A549 and HT-29 cancer cells, read-out: IC50 values, range): 0.03 to 0.043 µM | fold more potent than the 7-(3′,4′,5′-trimethoxyanilino) counterpart ([2]; antiproliferative agent): 4–30 fold | fold more active than CA-4 as inhibitor of tubulin assembly (Bovine brain tubulin): 2 fold | fold more potent than 2a as inhibitor of tubulin assembly (Bovine brain tubulin): ~2 fold | IC50 (Bovine brain tubulin; tubulin at 10 μM, 20 min incubation, read-out: Tubulin Assembly IC50 ± SD): 0.45 ± 0.1 µM | caspase-9 cleavage (cleaved caspase-9 (D330)): appearance of the cleaved fragment of caspase-9 | cdc2 phosphorylation (Y15) (cdc2 (Y15)): significant reduction in cdc2 phosphorylation (Y15) | Bcl-2 expression (Bcl-2): reduction in Bcl-2 expression starting at 10 nM | cyclin B expression (cyclin B): increase in cyclin B expression | ATR phosphorylation (Ser428) (ATR): considerable increase in ATR phosphorylation (Ser428)
